Assay [1] deals with SNU-398. Put plainly: Growth inhibition of human SNU398 cells after 48 hrs. In kind it is functional. Particulars: SNU-398, 48 h.
For assay [2], the system named is SNU-398. Kind of assay: Induction of apoptosis in human SNU398 cells assessed as caspase activation after 48 hrs by HTS assay. Particulars: SNU-398, 48 h. It counts as functional, cell-based.
Assay [3] can be described thus: Inhibition of tubulin polymerization at 0.5 uM.
Assay [4] relates to SNU-398. Kind of assay: Ratio of drug to paclitaxel for induction of apoptosis in human SNU398 cells assessed as caspase activation after 48 hrs by HTS assay. In kind it is functional.
The test system of assay [5] is HCT-116. Kind of assay: Induction of apoptosis in human HCT116 cells assessed as caspase activation after 48 hrs by HTS assay. Particulars: HCT-116, 48 h. In kind it is functional, cell-based.
Assay [6] relates to HCT-116. Kind of assay: Ratio of drug to paclitaxel for induction of apoptosis in human HCT116 cells assessed as caspase activation after 48 hrs by HTS assay. In kind it is functional.
In assay [7] the test system is T47D. Put plainly: Growth inhibition of human T47D cells after 48 hrs. In kind it is functional.
The test system of assay [8] is HCT-116. Kind of assay: Growth inhibition of human HCT116 cells after 48 hrs. The settings on record: HCT-116, 48 h. In kind it is functional.
Assay [9] can be described thus: Inhibition of tubulin polymerization at 2 uM.
Assay [10] relates to T47D. Put plainly: Induction of apoptosis in human T47D cells assessed as caspase activation after 48 hrs by HTS assay. It counts as functional, cell-based.
Assay [11] in a line: Inhibition of tubulin polymerization at 3 uM.
Assay [12] relates to SNU-398. Kind of assay: Ratio of drug to vinblastin for induction of apoptosis in human SNU398 cells assessed as caspase activation after 48 hrs by HTS assay. In kind it is functional.
Assay [13] relates to T47D. Put plainly: Ratio of drug to paclitaxel for induction of apoptosis in human T47D cells assessed as caspase activation after 48 hrs by HTS assay. It counts as functional.
Assay [14] has as its system HCT-116. Put plainly: Ratio of drug to vinblastin for induction of apoptosis in human HCT116 cells assessed as caspase activation after 48 hrs by HTS assay. It counts as functional.
Assay [15] has as its system T47D. Kind of assay: Ratio of drug to vinblastin for induction of apoptosis in human T47D cells assessed as caspase activation after 48 hrs by HTS assay. It counts as functional.
For assay [16], the system named is T47D. Kind of assay: Induction of apoptosis in human T47D cells assessed as accumulation at S phase at 2 uM after 48 hrs by propidium iodide-based flow cytometry. It counts as functional. (Flow cytometry measures light scatter and fluorescence of single cells or particles in a stream.)
Assay [17] concerns T47D. Kind of assay: Induction of apoptosis in human T47D cells assessed as accumulation at S phase at 2 uM after 24 hrs by propidium iodide-based flow cytometry. In kind it is functional.
Assay [18] deals with T47D. Put plainly: Induction of apoptosis in human T47D cells assessed as accumulation at sub G1 phase at 2 uM after 24 hrs by propidium iodide-based flow cytometry. It counts as functional.
In assay [19] the test system is T47D. Kind of assay: Induction of apoptosis in human T47D cells assessed as accumulation at G1 phase at 2 uM after 24 hrs by propidium iodide-based flow cytometry. It counts as functional.
The test system of assay [20] is T47D. Put plainly: Induction of apoptosis in human T47D cells assessed as accumulation at sub G1 phase at 2 uM after 48 hrs by propidium iodide-based flow cytometry. It counts as functional.
Assay [21] deals with T47D. Put plainly: Induction of apoptosis in human T47D cells assessed as accumulation at G2M phase at 2 uM after 48 hrs by propidium iodide-based flow cytometry. In kind it is functional.
The subject of assay [22] is T47D. Kind of assay: Induction of apoptosis in human T47D cells assessed as accumulation at G2M phase at 2 uM after 24 hrs by propidium iodide-based flow cytometry. It counts as functional.
For assay [23], the system named is T47D. Put plainly: Induction of apoptosis in human T47D cells assessed as accumulation at G1 phase at 2 uM after 48 hrs by propidium iodide-based flow cytometry. It counts as functional.

The source made the active and inactive calls. The calls are words filed in the database; no cut-off is given here.

This is an account of results in ChEMBL document CHEMBL1159042, “Discovery of N-aryl-9-oxo-9H-fluorene-1-carboxamides as a new series of apoptosis inducers using a cell- and caspase-based high-throughput screening assay. 2. Structure-activity relationships of the 9-oxo-9H-fluorene ring” (Bioorg Med Chem Lett, 2010).

Consider `O=C(Nc1ccccc1-n1cccn1)c1cccc2c1C(=O)c1cc([N+](=O)[O-])ccc1-2`, for which the GI50 (usually the concentration giving 50% growth inhibition) in the assay with SNU-398 [1] is 72 nM; in the assay on T47D [7], 110 nM; in the assay with HCT-116 [8], 420 nM. Further, the EC50 (usually the concentration at which the effect is half-maximal) in the assay with SNU-398 [2] stood at 150 nM; with HCT-116 [5] it was 220 nM; in the assay with T47D [10] it was 290 nM. In addition, the inhibition (commonly how much of the control response was suppressed) in assay [3] was “Active”. Besides, the Ratio in the assay with SNU-398 [4], in the assay with HCT-116 [6], in the assay with SNU-398 [12], in the assay on T47D [13], in the assay with HCT-116 [14] and in the assay on T47D [15] was less than 10 in each case. In addition, the inhibition in [9] and in assay [11] was 50% each time.
Take `[N-]=[N+]=Nc1ccc2c(c1)C(=O)c1c(C(=O)Nc3ccccc3-n3cccn3)cccc1-2`: the EC50 turned out to be 150 nM in the assay with SNU-398 [2], 290 nM in the assay on HCT-116 [5] and 470 nM in the assay with T47D [10].
The like results for `O=C(Nc1ccccc1-n1cccn1)c1cccc2c1Cc1ccccc1-2` were, in that order, 6900 nM, 6200 nM and 3200 nM.
Regarding `O=C(Nc1ccccc1-n1cccn1)c1cccc2c1OCC2`, the EC50 with SNU-398 [2], in the assay with HCT-116 [5] and with T47D [10] was more than 10000 nM throughout.
For the compound `Nc1ccc2c(c1)C(=O)c1c(C(=O)Nc3ccccc3-n3cccn3)cccc1-2`, the 50% growth inhibitory concentration (GI50) came to 84 nM in the assay with SNU-398 [1], 150 nM in the assay with T47D [7] and 510 nM in the assay on HCT-116 [8]. In addition, the Activity is reported as 10% in the assay on T47D [16]; 14% in the assay on T47D [17]; 12% with T47D [18]; 11% with T47D [19]; 50% in the assay on T47D [20]; 24% in the assay with T47D [21]. Further, the Activity came to 60% in the assay on T47D [22] and 10% in the assay with T47D [23]. Further, the results for the half-maximal effective concentration (EC50) with SNU-398 [2], in the assay on HCT-116 [5] and in the assay with T47D [10] were 150 nM, 370 nM and 970 nM, respectively. Also, the inhibition entry in [3] is “Active”. Besides, the Ratio in the assay on SNU-398 [4], with HCT-116 [6], in the assay on SNU-398 [12], with T47D [13], in the assay with HCT-116 [14] and in the assay on T47D [15] was less than 10 throughout. Further, the inhibition in assay [9] and in [11] was 50% throughout.
Consider `O=C(Nc1ccccc1-n1cccn1)c1cccc2c1oc1ccccc12`, for which the EC50 in the assay with SNU-398 [2], in the assay with HCT-116 [5] and in the assay on T47D [10] was more than 10000 nM throughout.
`Cc1ccc(C)c(NC(=O)c2cccc3c2Cc2ccccc2-3)c1`: the concentration giving a half-maximal response (EC50) was more than 10000 nM in the assay on SNU-398 [2], more than 10000 nM with HCT-116 [5] and 2400 nM in the assay on T47D [10].
As for `O=C(Nc1ccccc1-n1cccn1)c1cccc2c1S(=O)(=O)c1ccccc1-2`, the 50% effective concentration (EC50) with SNU-398 [2] is 480 nM; in the assay with HCT-116 [5], more than 10000 nM; in the assay with T47D [10] it was more than 10000 nM.
For `Cc1ccccc1NC(=O)c1cccc2c1Cc1ccccc1-2`, the concentration for a half-maximal effect (EC50) is more than 10000 nM with SNU-398 [2], more than 10000 nM with HCT-116 [5] and 1700 nM in the assay on T47D [10].
With `O=C(Nc1ccccc1-n1cccn1)c1cccc2c1C(=O)c1ccccc1-2`, the 50% growth inhibitory concentration (GI50) in the assay with SNU-398 [1] worked out at 780 nM; with T47D [7], 160 nM; with HCT-116 [8], 1100 nM.
In the case of `CC(=O)O[C@H]1C(=O)[C@@]2(C)[C@H]([C@H](OC(=O)c3ccccc3)[C@]3(O)C[C@H](OC(=O)[C@H](O)[C@@H](NC(=O)c4ccccc4)c4ccccc4)C(C)=C1C3(C)C)[C@]1(OC(C)=O)CO[C@@H]1C[C@@H]2O` [PACLITAXEL], the results for the 50% growth inhibitory concentration (GI50) with SNU-398 [1], with T47D [7] and in the assay with HCT-116 [8] were 61 nM, 26 nM and 60 nM, respectively.
As for `Cc1cccc(NC(=O)c2cccc3c2Cc2ccccc2-3)c1C`, the EC50 in the assay on SNU-398 [2], in the assay with HCT-116 [5] and in the assay with T47D [10] was more than 10000 nM each time.
As for `CC[C@]1(O)C[C@@H]2CN(CCc3c([nH]c4ccccc34)[C@@](C(=O)OC)(c3cc4c(cc3OC)N(C)[C@H]3[C@@](O)(C(=O)OC)[C@H](OC(C)=O)[C@]5(CC)C=CCN6CC[C@]43[C@@H]65)C2)C1` [VINBLASTINE], the figures for the GI50 with SNU-398 [1], with T47D [7] and in the assay with HCT-116 [8] were 5 nM, 7 nM and 10 nM, respectively.
As for `O=C(Nc1ccccc1-n1cc(Br)cn1)c1cccc2c1C(=O)c1cc([N+](=O)[O-])ccc1-2`, the half-maximal effective concentration (EC50) with SNU-398 [2] came to 1400 nM; in the assay with HCT-116 [5], 1500 nM; in the assay with T47D [10] it was 1300 nM.
The corresponding values for `Cc1ccccc1NC(=O)c1cccc2c1C(O)c1ccccc1-2` (configuration not stated) are more than 10000 nM, more than 10000 nM and 3000 nM.
The like results for `O=C(Nc1ccccc1-n1cccn1)c1cccc2c3ccccc3[s+]([O-])c12` (configuration not stated) were, in that order, more than 10000 nM, more than 10000 nM and more than 10000 nM.
Regarding `O=C(Nc1ccccc1-n1cccn1)c1cccc2c1[nH]c1ccccc12`, the EC50 with SNU-398 [2], in the assay on HCT-116 [5] and in the assay with T47D [10] was more than 10000 nM throughout.
`O=C(Nc1ccccc1-n1cccn1)c1cccc2c1sc1ccccc12`: the figures for the EC50 in the assay with SNU-398 [2], in the assay with HCT-116 [5] and in the assay with T47D [10] were 1500 nM, 2200 nM and 2100 nM, respectively.
In the case of `Cc1ccc(NC(=O)c2cccc3c2Cc2ccccc2-3)c(C)c1`, the EC50 in the assay on SNU-398 [2], in the assay on HCT-116 [5] and with T47D [10] was more than 10000 nM throughout.
In the case of `O=C(Nc1ccccc1-n1cccn1)c1ccccc1C(=O)c1ccccc1`, the concentration giving a half-maximal response (EC50) with SNU-398 [2], in the assay with HCT-116 [5] and in the assay on T47D [10] was more than 10000 nM in each case.
